Results: patent US20060241162A1, “Optically active (R)-hydantoin derivative” (priority 2005, published 2006)
Entries after “also recorded” stand apart in the source; their conditions may differ.

Test system: model rats for renal insufficiency
Experiment: Suppressive action to the progression of renal failure in adenine-induced renal insufficiency model rats
Assay type: in vivo, Wistar-strain male rats
Excerpt: (1) Suppressive Action of the Optical Isomer to the Progression of Renal Failure
Adenine was orally administered to Wistar-strain male rats of eight weeks age to prepare a renal insufficiency model. […] Further, a value of creatinine clearance (mL/kg/hr) decreased from 315.3±13.8 to 25.7±4.4 whereupon renal functions lowered to about one-tenth.
From the 7th to the 17th days from administration of adenine, each of (S)-(−)- 5-hydroxy-1-methylhydantoin, (R)-(+)-5-hydroxy-1-methylhydantoin and the racemate at the dose of 100 mg/kg or 200 mg/kg was orally administered to the rat in which renal insufficiency was induced by adenine. The creatinine levels in blood before and after the administration of the test drug were compared whereupon a suppressive action of the test drug to an increase of creatinine (ΔCr) accompanied by the progress of renal insufficiency was checked and the results are shown in FIG. 1 and FIG. 2. Five rats were used as a group for the test. The average value ± standard error was calculated and the significant difference between the test drug group and the diseased control group was statistically analyzed by means of Dunnett's test or Student-t test (*; p<0.05).

In the case of CN1C(=O)NC(=O)[C@H]1O [(R)-(+)-5-hydroxy-1-methylhydantoin], the “suppressive action to the progression of renal failure” value (as compared with the S-form and the racemate, oral, listed as R-form) is reported as “excellent suppressive action; also recorded: particularly an excellent suppressive effect” and the “suppressive action to an increase of creatinine in blood (ΔCr)” value (oral 100 mg/kg or 200 mg/kg, 7th to 17th day of adenine, vs diseased control, p<0.05, FIG. 1 and FIG. 3) is reported as “significantly suppressed”.
